Assays:
[1] = molecular target: T1, Flavin-containing monooxygenase 3 (Homo sapiens, UniProt P31513); experiment: Activity of human recombinant FMO3 expressed in microsomes isolated from baculovirus infected insect BTI-TN-5B1-4 cells assessed as enzyme-mediated 1-(2-(2,4-dimethylphenylsulfinyl)phenyl)piperazine formation at 8 to 50 uM after 120 mins by HPLC/MS-MS analysis in presence of NADPH regenerating system with NADP+; assay type: ADME; details: 2 h
T1 sequence (P31513 whole entry): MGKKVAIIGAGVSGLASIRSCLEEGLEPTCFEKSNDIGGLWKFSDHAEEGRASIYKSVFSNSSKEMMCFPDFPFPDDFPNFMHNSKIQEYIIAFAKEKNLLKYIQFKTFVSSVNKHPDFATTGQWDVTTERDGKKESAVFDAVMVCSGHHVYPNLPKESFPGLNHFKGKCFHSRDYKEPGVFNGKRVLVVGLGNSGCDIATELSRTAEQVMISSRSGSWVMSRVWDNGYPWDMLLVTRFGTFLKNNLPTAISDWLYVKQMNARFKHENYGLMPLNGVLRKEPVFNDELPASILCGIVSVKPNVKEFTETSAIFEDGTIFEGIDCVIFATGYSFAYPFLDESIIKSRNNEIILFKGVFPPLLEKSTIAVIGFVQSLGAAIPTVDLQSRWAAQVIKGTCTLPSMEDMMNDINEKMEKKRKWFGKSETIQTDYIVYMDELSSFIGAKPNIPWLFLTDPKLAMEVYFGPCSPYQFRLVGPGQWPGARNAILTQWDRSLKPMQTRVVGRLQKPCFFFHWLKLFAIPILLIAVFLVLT

Liver microsome [2] = experiment: Drug metabolism in pooled human liver microsomes assessed as formation of 3-(2,4-dimethylphenylthio)-4-(piperazin-1-yl)phenol after 30 mins by Michaelis-Menten plot analysis in presence of NADPH regenerating system with NADP+; assay type: ADME; details: 0.5 h, read-out: Km(app)
Cytochrome P450 2E1 = Cytochrome P450 2E1 (Homo sapiens, UniProt P05181); experiment: Activity of human recombinant CYP2E1 expressed in microsomes isolated from human AHH-1 cells assessed as enzyme-mediated 3-(2,4-dimethylphenylthio)-4-(piperazin-1-yl)phenol formation at 8 to 50 uM after 120 mins by HPLC/MS-MS analysis in presence of NADPH regenerating system with NADP+; assay type: ADME, cell-free; details: 2 h
Cytochrome P450 2B6 = molecular target: T2, Cytochrome P450 2B6 (Homo sapiens, UniProt P20813); experiment: Activity of human recombinant CYP2B6 expressed in microsomes isolated from human AHH-1 cells assessed as enzyme-mediated 1-(2-(2,4-dimethylphenylsulfinyl)phenyl)piperazine formation at 8 to 50 uM after 120 mins by HPLC/MS-MS analysis in presence of NADPH regenerating system with NADP+; assay type: ADME, cell-free; details: 2 h
T2 sequence (P20813 whole entry): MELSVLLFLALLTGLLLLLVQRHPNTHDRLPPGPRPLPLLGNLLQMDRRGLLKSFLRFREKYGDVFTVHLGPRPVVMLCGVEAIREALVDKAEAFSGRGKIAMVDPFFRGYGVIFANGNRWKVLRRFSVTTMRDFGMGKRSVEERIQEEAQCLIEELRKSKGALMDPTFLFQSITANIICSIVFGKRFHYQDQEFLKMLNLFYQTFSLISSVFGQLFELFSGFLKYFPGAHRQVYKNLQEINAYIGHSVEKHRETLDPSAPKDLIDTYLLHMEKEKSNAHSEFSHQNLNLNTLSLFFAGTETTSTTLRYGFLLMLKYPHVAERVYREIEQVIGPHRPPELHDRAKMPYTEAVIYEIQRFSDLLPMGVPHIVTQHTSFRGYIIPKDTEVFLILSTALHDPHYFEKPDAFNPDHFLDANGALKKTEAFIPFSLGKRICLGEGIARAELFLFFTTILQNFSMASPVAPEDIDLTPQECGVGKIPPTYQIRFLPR

Liver microsome [3] = experiment: Drug metabolism in pooled human liver microsomes assessed as formation of 1-(2-(2,4-dimethylphenylsulfinyl)phenyl)piperazine after 30 mins by Michaelis-Menten plot analysis in presence of NADPH regenerating system with NADP+; assay type: ADME; details: 0.5 h, read-out: Km(app)
Cytochrome P450 1A2 = molecular target: T3, Cytochrome P450 1A2 (Homo sapiens, UniProt P05177); experiment: Activity of human recombinant CYP1A2 expressed in microsomes isolated from human AHH-1 cells assessed as enzyme-mediated 3-(2,4-dimethylphenylthio)-4-(piperazin-1-yl)phenol formation at 8 to 50 uM after 120 mins by HPLC/MS-MS analysis in presence of NADPH regenerating system with NADP+; assay type: ADME, cell-free; details: 2 h
T3 sequence (P05177 whole entry): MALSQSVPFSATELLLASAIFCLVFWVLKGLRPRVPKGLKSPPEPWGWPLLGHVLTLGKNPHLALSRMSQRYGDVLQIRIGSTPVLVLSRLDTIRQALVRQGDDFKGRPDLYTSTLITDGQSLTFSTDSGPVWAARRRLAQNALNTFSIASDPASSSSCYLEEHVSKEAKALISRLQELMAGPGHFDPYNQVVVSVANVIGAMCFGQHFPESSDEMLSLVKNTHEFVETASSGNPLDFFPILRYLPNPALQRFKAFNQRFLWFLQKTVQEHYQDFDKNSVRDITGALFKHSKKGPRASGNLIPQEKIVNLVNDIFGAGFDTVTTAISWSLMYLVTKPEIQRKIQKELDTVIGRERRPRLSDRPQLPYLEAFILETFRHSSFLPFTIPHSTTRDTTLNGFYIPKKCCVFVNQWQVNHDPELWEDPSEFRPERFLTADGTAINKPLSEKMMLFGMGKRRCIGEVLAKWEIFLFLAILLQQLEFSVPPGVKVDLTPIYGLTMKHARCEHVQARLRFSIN

Cytochrome P450 2A6 = molecular target: T4, Cytochrome P450 2A6 (Homo sapiens, UniProt P11509); experiment: Activity of human recombinant CYP2A6 expressed in microsomes isolated from human AHH-1 cells assessed as enzyme-mediated 1-(2-(2,4-dimethylphenylsulfinyl)phenyl)piperazine formation at 8 to 50 uM after 120 mins by HPLC/MS-MS analysis in presence of NADPH regenerating system with NADP+; assay type: ADME, cell-free; details: 2 h
T4 sequence (P11509 whole entry): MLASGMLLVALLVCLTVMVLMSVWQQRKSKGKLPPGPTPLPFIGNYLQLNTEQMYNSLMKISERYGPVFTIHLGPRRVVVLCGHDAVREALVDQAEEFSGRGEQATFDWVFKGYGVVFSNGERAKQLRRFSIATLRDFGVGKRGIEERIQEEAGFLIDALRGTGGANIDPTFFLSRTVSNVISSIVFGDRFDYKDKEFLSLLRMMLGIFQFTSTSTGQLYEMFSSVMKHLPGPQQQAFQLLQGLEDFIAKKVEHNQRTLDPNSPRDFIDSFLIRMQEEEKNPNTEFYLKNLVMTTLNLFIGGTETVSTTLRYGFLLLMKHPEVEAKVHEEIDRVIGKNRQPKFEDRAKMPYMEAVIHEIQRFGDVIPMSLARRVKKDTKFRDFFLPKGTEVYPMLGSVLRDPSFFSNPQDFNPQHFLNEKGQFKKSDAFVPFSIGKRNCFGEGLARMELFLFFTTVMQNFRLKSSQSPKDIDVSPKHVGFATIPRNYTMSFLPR

Cytochrome P450 2C19 = Cytochrome P450 2C19 (Homo sapiens, UniProt P33261); experiment: Activity of human recombinant CYP2C19 expressed in microsomes isolated from human AHH-1 cells assessed as enzyme-mediated (3-methyl-4-(2-(piperazin-1-yl)phenylthio)phenyl)methanol formation at 8 to 50 uM after 120 mins by HPLC/MS-MS analysis in presence of NADPH regenerating system with NADP+; assay type: ADME, cell-free; details: 2 h
Chain of Cytochrome P450 2C19 (P33261 whole entry): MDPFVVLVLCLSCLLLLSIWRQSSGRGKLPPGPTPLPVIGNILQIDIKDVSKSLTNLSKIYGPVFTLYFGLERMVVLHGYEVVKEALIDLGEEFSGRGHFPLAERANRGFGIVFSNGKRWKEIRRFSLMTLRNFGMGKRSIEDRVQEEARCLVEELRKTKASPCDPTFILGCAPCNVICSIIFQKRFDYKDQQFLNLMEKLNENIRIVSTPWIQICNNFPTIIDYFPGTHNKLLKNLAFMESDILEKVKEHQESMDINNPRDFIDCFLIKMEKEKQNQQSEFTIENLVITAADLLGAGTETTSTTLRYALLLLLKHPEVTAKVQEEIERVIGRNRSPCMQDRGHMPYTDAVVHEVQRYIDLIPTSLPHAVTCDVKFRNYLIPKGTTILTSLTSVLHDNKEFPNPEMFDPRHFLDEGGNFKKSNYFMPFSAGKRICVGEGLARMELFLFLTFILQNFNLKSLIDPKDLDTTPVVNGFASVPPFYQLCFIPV

Chain of Cytochrome P450 2E1 (P05181 whole entry): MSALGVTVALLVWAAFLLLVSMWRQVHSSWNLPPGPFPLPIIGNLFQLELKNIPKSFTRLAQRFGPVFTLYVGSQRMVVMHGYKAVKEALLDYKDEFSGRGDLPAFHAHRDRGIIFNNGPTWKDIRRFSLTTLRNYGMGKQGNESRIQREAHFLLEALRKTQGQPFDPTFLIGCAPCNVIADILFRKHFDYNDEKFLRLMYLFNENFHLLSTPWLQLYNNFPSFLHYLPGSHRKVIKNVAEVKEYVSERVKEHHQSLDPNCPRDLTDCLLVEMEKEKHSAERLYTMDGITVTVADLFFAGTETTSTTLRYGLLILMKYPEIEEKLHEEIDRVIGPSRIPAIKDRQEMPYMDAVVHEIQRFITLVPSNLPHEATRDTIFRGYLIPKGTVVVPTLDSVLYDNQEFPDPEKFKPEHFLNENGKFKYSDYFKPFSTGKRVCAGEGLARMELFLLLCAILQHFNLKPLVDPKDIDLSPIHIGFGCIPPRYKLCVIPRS

Question: What does the source list for `Br.Cc1ccc(Sc2ccccc2N2CCNCC2)c(C)c1` [VORTIOXETINE HYDROBROMIDE]?
Answer: Drug metabolism [1]: metabolite_not_detected; Km (Liver microsome [2]): 323 µM; Drug metabolism (Cytochrome P450 2E1): metabolite_not_detected; Drug metabolism (Cytochrome P450 2B6): metabolite_not_detected; Km (Liver microsome [3]): ≥ 208 µM; Drug metabolism (Cytochrome P450 1A2): metabolite_not_detected; Drug metabolism (Cytochrome P450 2A6): metabolite_detected; Drug metabolism (Cytochrome P450 2C19): metabolite_detected
